The text below walks through data of PMC8473641, “Dual blocking of PI3K and mTOR signaling by DHW‐221, a novel benzimidazole derivative, exerts antitumor activity in human non‐small cell lung cancer” (Clinical and Translational Medicine, 2021).

Read-outs that look alike come from different tables or passages of the source.

One data set deals with p-mTOR. Nature of the data set: Western blot of p-AKT and p-mTOR in PI3K knocked down HCC827 cells. It is filed as cell-based, human. The source says:
First, we identified potential targets of DHW‐221. […] For mTOR, DHW‐221 precisely overlapped with it and formed two more hydrogen bonds (Val2240 and Thr2245) than NVP‐BEZ235 (Figure 1A). […] Additionally, we knocked down PI3K in HCC827 cells (Figure 1C) and compared how DHW‐221, NVP‐BEZ235, and wortmannin (a PI3K inhibitor) treatments affected AKT and mTOR protein phosphorylation levels. […] Finally, western blot and immunofluorescence analysis confirmed the effect of DHW‐221 on the expression of PI3K/AKT/mTOR pathway‐related proteins both in vitro and in vivo (Figure 1E–G). […] The effects of DHW‐221 on notch pathway are provided in Result S1.
FIGURE 1 DHW‐221 is a PI3K/mTOR dual‐target inhibitor and inhibits the PI3K/AKT/mTOR signaling pathway. (A) Predicted binding modes for DHW‐221 (blue stick) with PI3Kα (PDB code: 4JPS) and mTOR (PDB code: 4JT6). Hydrogen bonds are shown as green dashed lines. Key residues for DHW‐221 and BEZ235 interaction are highlighted. (B) A cellular thermal shift assay (CETSA) and an isothermal dose–response fingerprinting (ITDRF)cetsa were used to evaluate the thermal stability of DHW‐221 bound to PI3Kα/β or mTOR. (C, D) The expression of PI3K, p‐AKT, and p‐mTOR in transfected NSCLC cells was assessed by western blot. […]

Another data set has as its system HCC827. The experiment in a line: SRB assay HCC827. It is filed as cell-based. The settings on record: Homo sapiens, mean±SD. The procedure:
(§1) To investigate the effect of DHW‐221 in vitro, SRB assay was performed. […] Additionally, the long‐term efficacy of DHW‐221 was evaluated and confirmed a better antiproliferation role than NVP‐BEZ235 (Figure 2C–E). Figure 2F investigates the concentration‐dependently inhibition of DHW‐221 on protein synthesis in cells. HCC827 xenograft models in both subcutaneous and orthotopic were used to further evaluate its antitumor potency in vivo. […] Moreover, DHW‐221 treatment could ameliorate the burden of orthotopic carcinoma to nude mice (Figure 2O, P).
(§2) FIGURE 2 DHW‐221 inhibits the viability of NSCLC cells both in vitro and in vivo. (A) The structure of compound DHW‐221. (B) The viability of HCC827, NCI‐H292, NCI‐H1993, and A549 cells treated with various concentrations of DHW‐221 at 24, 48, and 72 h was determined by sulforhodamine B (SRB) assay. (C–E) The growth‐inhibitory effect of DHW‐221 on HCC827 and NCI‐H1993 cells was measured using a colony formation assay (C), a lactate dehydrogenase (LDH) assay (D), and a tumor sphere formation assay (E). […] (F) OPP‐labeled protein content was detected by luciferase plate. (G) Tumor‐burdened nude mice and resected tumor samples from subcutaneous xenografts after 21 days (n = 6). (H) Subcutaneous tumor volume was measured daily with a caliper. (I) Mean tumor weight was measured to subcutaneous xenografts at the end of the experiment. (J) Subcutaneous xenografts nude mice were weighed daily on an electronic scale. (K) The index of each main organ of subcutaneous xenografts nude mice. (L) Liver and kidney function indexes subcutaneous xenografts nude mice were evaluated to predict drug toxicity. (M) Hematoxylin and eosin (H&E) staining of the liver, spleen, and kidney from subcutaneous xenografts nude mice; scale bar = 100 µm. (N) Photographs of NSCLC orthotopic tumor samples, n = 6. (O) Orthotopic xenografts nude mice were weighed daily on an electronic scale. (P) The index of lung organ was measured from orthotopic xenografts nude mice. Mean ± SD; *p < 0.05, **p < 0.01, ***p < 0.001 versus the control (model). […]
Background: The SRB assay estimates cell density from bound dye.

A short description of the next data set: Pharmacokinetics in mice. The format is in vivo. The settings on record: mouse, plasma, 10 mg/kg; for MRT inf: read-out: MRTinf_obs. Here is the method:
^a Values are the average of three runs. Vehicle: DMSO:ethanol:saline=3:100:897. ^b Dose:10 mg/kg. T1/2, half-life; Cmax, maximum concentration; Tmax, time of maximum concentration; AUCall, area under the plasma concentration time curve.

The subject of the next data set is Notch2 and Notch3. The experiment in a line: Western blot of Notch pathway proteins. It is filed as cell-based, human. Particulars: HCC827 and NCI-H1993 cells, 48 h. Here is the method:
The PI3K signaling pathway is interrelated with Notch. However, the regulatory relationship between Notch and PI3K/AKT/mTOR pathways is still unclear. Next, we investigated the effects of DHW-221 on Notch and its downstream critical target Hes-1.
Figure S2. DHW-221 blocks the notch pathway. HCC827 and NCI-H1993 cells were treated with DHW-221 or NVP-BEZ235 for 48 h following which western blotting was performed on the cell lysates. Mean ± SD; **p < 0.01, ***p < 0.001 vs. the control. One-way analysis of variance followed by Tukey’s post hoc multiple-comparisons test.
In general terms: Immunoblotting shows a protein as a band on a membrane.

For data set [1], the system named is normal cell lines (HL7702, HUVEC, and MRC-5). Nature of the data set: SRB cytotoxicity toward normal cell lines. It is filed as cell-based. The settings on record: MRC-5, 72 h. Here is the method: as §1
Figure S3. The effect of DHW-221 on normal cell lines. SRB assay was used to determine the cytotoxicity of DHW-221 toward normal cell lines (HL7702, HUVEC, and MRC-5) at 72 h. Mean ± SD; **p < 0.01, ***p < 0.001 vs. the control. One-way analysis of variance followed by Tukey’s post hoc multiple-comparisons test.

The next data set deals with HCC827 xenograft. The experiment in a line: HCC827 xenograft models (subcutaneous and orthotopic) in nude mice. It is filed as in vivo. The procedure:
as §1, §2

Another data set concerns the target mTOR kinase (Homo sapiens, UniProt P42345). The experiment in a line: mTOR kinase assay in vitro. The format is biochemical.
Another data set concerns A549. Nature of the data set: SRB assay A549. The format is cell-based. The settings on record: Homo sapiens, mean±SD. The procedure: as §1, §2
The test system of the next data set is NSCLC cells. The experiment in a line: Cell cycle analysis by flow cytometry. It is filed as cell-based, human. The settings on record: 48 h, concentration-dependently. The text has this: The PI3K/AKT/mTOR pathway is strongly linked to the regulation of cell cycle progression and apoptosis during cell proliferation.[6], [7] […] Meanwhile, the expression of endogenous cyclins in G0/G1 phase was detected by western blot, confirming that DHW‐221 regulated the cell cycle (Figure 3B). Apoptosis is crucial for anticancer drugs to kill cancer cells.[7] […] Finally, the proapoptotic effects of DHW‐221 were confirmed by western blot analysis of apoptosis‐related protein expression both in vitro and in vivo (Figure 3G–I).
FIGURE 3 DHW‐221 induces cell cycle arrest and cell apoptosis in NSCLC both in vitro and in vivo. (A) DHW‐221 and NVP‐BEZ235 were detected by flow cytometry for 48 h. The raw histogram is shown at the top and the quantification of specific cell cycle stages at the bottom. (B) Western blot analysis of the expression levels of cell cycle‐related proteins in HCC827 and NCI‐H1993 cells after 48 h of treatment with the specified concentrations of DHW‐221 and NVP‐BEZ235. (C) Hoechst 33342 staining results. Apoptotic cells are bright blue; scale bar, 50 µm. […] Green fluorescence indicates decreased mitochondrial membrane potential, red fluorescence indicates normal mitochondrial membrane potential; scale bar, 100 µm. […] (G–I) The expression levels of apoptosis‐related proteins in NSCLC cells (G, H) and tumor tissues (I) were detected by western blot. […]
For orientation: In flow cytometry, cells or beads pass a laser one at a time.

The next data set relates to NCI-H1993. Nature of the data set: SRB assay NCI-H1993. Particulars: Homo sapiens, mean±SD. The format is cell-based. The procedure:
as §1, §2

Another data set concerns NCI-H292. The experiment in a line: SRB assay NCI-H292. The format is cell-based. Particulars: Homo sapiens, mean±SD. The procedure:
as §1, §2

On to `Cn1c(=O)n(-c2ccc(C(C)(C)C#N)cc2)c2c3cc(-c4cnc5ccccc5c4)ccc3ncc21` [NVP‐BEZ235, reference compound], for which the “p-mTOR expression compared with wortmannin” value in the data set on p-mTOR was “significantly decreased”.

With `COc1ncc(-c2ccc3ncn(-c4ccc(OCCO)cc4)c3c2)cc1NS(=O)(=O)c1ccc(F)cc1F` [DHW-221], the IC50 with HCC827 (24h, n=3, read-out: IC50 HCC827 24h) turned out to be 8.33 ± 1.45 µM; in the data set with HCC827 (48h, n=3, read-out: IC50 HCC827 48h), 0.97 ± 0.127 µM; in the data set on HCC827 (72h, n=3, read-out: IC50 HCC827 72h), 0.032 ± 0.018 µM; at mTOR kinase it was 0.0039 µM; in the data set on A549 (24h, n=3, read-out: IC50 A549 24h), 7.14 ± 1.24 µM; with A549 (48h, n=3, read-out: IC50 A549 48h), 0.893 ± 0.288 µM. For the same compound, the IC50 in the data set on A549 (72h, n=3, read-out: IC50 A549 72h) came to 0.372 ± 0.086 µM; in the data set on NCI-H1993 (24h, n=3, read-out: IC50 NCI-H1993 24h), 3.23 ± 1.29 µM; with NCI-H1993 (48h, n=3, read-out: IC50 NCI-H1993 48h), 0.762 ± 0.083 µM; with NCI-H1993 (72h, n=3, read-out: IC50 NCI-H1993 72h), 0.117 ± 0.054 µM; in the data set on NCI-H292 (24h, n=3, read-out: IC50 NCI-H292 24h), 7.32 ± 2.42 µM; in the data set with NCI-H292 (48h, n=3, read-out: IC50 NCI-H292 48h) it was 0.253 ± 0.149 µM. In the data set with NCI-H292 (72h, n=3, read-out: IC50 NCI-H292 72h), the IC50 was 0.026 ± 0.003 µM. Moreover, the figures for the AUC in “Pharmacokinetics in mice” (iv) and in the data set “Pharmacokinetics in mice” (po) were 262 ± 75.7 µg·h/mL and 176 ± 51.1 µg·h/mL, respectively. Also, the Cmax in “Pharmacokinetics in mice” (iv) turned out to be 67400 ± 8540 ng/mL; in the data set “Pharmacokinetics in mice” (po) it was 11800 ± 3400 ng/mL. In addition, the Tmax worked out at 0.083 h in “Pharmacokinetics in mice” (iv) and 3 ± 1.7 h in the data set “Pharmacokinetics in mice” (po). Besides, the half-life was 3.7 ± 0.2 h in “Pharmacokinetics in mice” (iv) and 7.1 ± 0.9 h in “Pharmacokinetics in mice” (po). In addition, the MRT inf in the data set “Pharmacokinetics in mice” (iv) is 4.7 ± 0.3 h; in the data set “Pharmacokinetics in mice” (po) it was 11.4 ± 0.3 h. Besides, in “Pharmacokinetics in mice” (po vs iv, read-out: F (oral bioavailability)), the bioavailability turned out to be 67.5%. For the same compound, the “expression of Notch2 and Notch3” value in the data set on Notch2 and Notch3 is “had no effect”. Also, the “effect on normal cells” value in data set [1] is on record as “without affecting the normal cells”. The tumor growth entry in the data set with HCC827 xenograft (HCC827 subcutaneous and orthotopic xenografts, nude mice) is “apparently inhibited tumor growth”. The alanine aminotransferase concentration entry in the data set on HCC827 xenograft (subcutaneous xenograft nude mice, high dose) is reported as “increased at high dose”. Moreover, in the data set on HCC827 xenograft (xenograft nude mice), the body weight result is “without affecting body weight”. Moreover, in the data set with NSCLC cells, the cell cycle arrest entry is “arrested at G0/G1 phase”. For the same compound, the “p-mTOR expression compared with wortmannin” value with p-mTOR is on record as “significantly decreased”.

By IC50 is commonly meant the midpoint of a concentration-inhibition curve. As usually defined, the AUC is concentration integrated over time. As usually defined, the Cmax is the peak of the concentration-time curve. For orientation: Tmax means the time from dosing to the highest level. By half-life is commonly meant how long it takes for the measured level to halve. The low end stands for rapid decline, the high end for slow decline. One may read the bioavailability as the share of a dose that reaches the circulation, judged against a reference dose that is usually intravenous.
